One may read the pIC50 as the IC50 on a negative log10 scale, so that one unit is a factor of ten. A low value points to a high IC50.

Each structure is given as a SMILES string. pIC50: −log10 of the molar value. Where only a bound is given, the exact number is not on record here.

The target in this experiment is Proto-oncogene tyrosine-protein kinase Src (Homo sapiens, UniProt P12931). The experiment in a line: Inhibition of His-tagged human src kinase expressed in Sf9 cells by DELFIA assay.
Chain of Proto-oncogene tyrosine-protein kinase Src (P12931 2-536 limits assumed): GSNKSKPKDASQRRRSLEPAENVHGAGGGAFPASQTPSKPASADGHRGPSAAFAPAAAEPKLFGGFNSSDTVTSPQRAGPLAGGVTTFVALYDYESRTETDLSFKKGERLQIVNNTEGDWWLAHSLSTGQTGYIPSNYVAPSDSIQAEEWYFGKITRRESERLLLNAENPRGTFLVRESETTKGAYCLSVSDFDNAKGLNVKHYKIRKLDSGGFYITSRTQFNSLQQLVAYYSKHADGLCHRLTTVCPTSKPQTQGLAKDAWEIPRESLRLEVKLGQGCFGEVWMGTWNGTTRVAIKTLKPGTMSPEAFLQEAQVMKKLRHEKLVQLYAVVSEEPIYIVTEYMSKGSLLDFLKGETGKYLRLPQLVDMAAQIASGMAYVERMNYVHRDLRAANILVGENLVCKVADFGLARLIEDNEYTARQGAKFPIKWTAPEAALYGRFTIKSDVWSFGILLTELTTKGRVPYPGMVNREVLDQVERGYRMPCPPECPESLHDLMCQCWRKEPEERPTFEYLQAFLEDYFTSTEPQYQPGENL
`O=C1C(c2ccccc2)=C(O)C(=O)c2c1oc1cc(O)c(O)cc21` gave a pIC50 of 4.63. As for `O=C1C(O)=C(c2cc(O)c(O)c(O)c2)C(=O)C(O)=C1c1ccccc1`, the pIC50 was 5.41. With `O=C1C(O)=C(c2ccccc2)C(=O)C(O)=C1c1ccccc1`, the pIC50 is less than 4.30.

As to `O=C1C(O)=C(c2ccc(O)cc2)C(=O)C(O)=C1c1ccccc1`, the pIC50 was 4.43.

The compound `O=C1C(O)=C(c2ccc(O)c(O)c2)C(=O)C(O)=C1c1ccccc1` gave a negative-log IC50 (pIC50) of 4.84.

(Values after ChEMBL document CHEMBL1158694, “Terphenylquinone inhibitors of the src protein tyrosine kinase from Stilbella sp” (J Nat Prod, 2005).)
